According to ChEMBL document CHEMBL4190322, “Structure-based development of novel triazoles and related thiazolotriazoles as anticancer agents and Cdc25A/B phosphatase inhibitors. Synthesis, in vitro biological evaluation, molecular docking and in silico ADME-T studies” (Eur J Med Chem, 2017):
Activity calls are given as the source filed them. The rule behind the calls is not given here.

Tests used:
Type in all cases: functional
Hs-578T = experiment: Growth inhibition of human Hs 578T cells at 10 uM after 48 hrs by SRB assay relative to control
CCRF-CEM = experiment: Growth inhibition of human CCRF-CEM cells at 10 uM after 48 hrs by SRB assay relative to control; details: read-out: GI
HCT-116 = experiment: Growth inhibition of human HCT116 cells at 10 uM after 48 hrs by SRB assay relative to control
PC-3 = experiment: Growth inhibition of human PC3 cells at 10 uM after 48 hrs by SRB assay relative to control; details: PC-3, 48 h, read-out: GI
K562 = experiment: Growth inhibition of human K562 cells at 10 uM after 48 hrs by SRB assay relative to control; details: K562, 48 h, read-out: GI
OVCAR-8 = experiment: Growth inhibition of human OVCAR8 cells at 10 uM after 48 hrs by SRB assay relative to control
RXF 393 = experiment: Growth inhibition of human RXF393 cells at 10 uM after 48 hrs by SRB assay relative to control
HL-60 = experiment: Growth inhibition of human HL60 cells at 10 uM after 48 hrs by SRB assay relative to control
SF-268 = experiment: Growth inhibition of human SF268 cells at 10 uM after 48 hrs by SRB assay relative to control; details: SF-268, 48 h, read-out: GI
NCI-H322M = experiment: Growth inhibition of human NCI-H322M cells at 10 uM after 48 hrs by SRB assay relative to control
SR = experiment: Growth inhibition of human SR cells at 10 uM after 48 hrs by SRB assay relative to control; details: read-out: GI
HOP-92 = experiment: Growth inhibition of human HOP92 cells at 10 uM after 48 hrs by SRB assay relative to control; details: HOP-92, 48 h, read-out: GI
MDA-MB-468 = experiment: Growth inhibition of human MDA-MB-468 cells at 10 uM after 48 hrs by SRB assay relative to control
SK-OV-3 = experiment: Growth inhibition of human SKOV3 cells at 10 uM after 48 hrs by SRB assay relative to control
SK-MEL-5 = experiment: Growth inhibition of human SK-MEL-5 cells at 10 uM after 48 hrs by SRB assay relative to control; details: SK-MEL-5, 48 h, read-out: GI
UACC-62 = experiment: Growth inhibition of human UACC62 cells at 10 uM after 48 hrs by SRB assay relative to control
Malme-3M = experiment: Growth inhibition of human MALME-3M cells at 10 uM after 48 hrs by SRB assay relative to control
HOP-62 = experiment: Growth inhibition of human HOP62 cells at 10 uM after 48 hrs by SRB assay relative to control; details: HOP-62, 48 h, read-out: GI
LOX IMVI = experiment: Growth inhibition of human LOXIMVI cells at 10 uM after 48 hrs by SRB assay relative to control; details: read-out: GI
786-0 = experiment: Growth inhibition of human 786-0 cells at 10 uM after 48 hrs by SRB assay relative to control
SNB-19 = experiment: Growth inhibition of human SNB19 cells at 10 uM after 48 hrs by SRB assay relative to control
OVCAR-3 = experiment: Growth inhibition of human OVCAR3 cells at 10 uM after 48 hrs by SRB assay relative to control
MCF7 = experiment: Growth inhibition of human MCF7 cells at 10 uM after 48 hrs by SRB assay relative to control; details: MCF7, 48 h, read-out: GI
UO-31 = experiment: Growth inhibition of human UO31 cells at 10 uM after 48 hrs by SRB assay relative to control; details: UO-31, 48 h, read-out: GI
NCI-H226 = experiment: Growth inhibition of human NCI-H226 cells at 10 uM after 48 hrs by SRB assay relative to control; details: NCI-H226, 48 h, read-out: GI
NCI-H23 = experiment: Growth inhibition of human NCI-H23 cells at 10 uM after 48 hrs by SRB assay relative to control; details: NCI-H23, 48 h, read-out: GI
HT-29 = experiment: Growth inhibition of human HT-29 cells at 10 uM after 48 hrs by SRB assay relative to control
OVCAR-4 = experiment: Growth inhibition of human OVCAR4 cells at 10 uM after 48 hrs by SRB assay relative to control; details: OVCAR-4, 48 h, read-out: GI
U-251 = experiment: Growth inhibition of human U251 cells at 10 uM after 48 hrs by SRB assay relative to control; details: U-251, 48 h, read-out: GI
MOLT-4 = experiment: Growth inhibition of human MOLT4 cells at 10 uM after 48 hrs by SRB assay relative to control; details: MOLT-4, 48 h, read-out: GI
A498 = experiment: Growth inhibition of human A498 cells at 10 uM after 48 hrs by SRB assay relative to control; details: A498, 48 h, read-out: GI
RPMI-8226 = experiment: Growth inhibition of human RPMI8226 cells at 10 uM after 48 hrs by SRB assay relative to control; details: RPMI-8226, 48 h, read-out: GI
UACC-257 = experiment: Growth inhibition of human UACC257 cells at 10 uM after 48 hrs by SRB assay relative to control
NCI/ADR-RES = experiment: Growth inhibition of human NCI/ADR-RES cells at 10 uM after 48 hrs by SRB assay relative to control; details: read-out: GI
NCI-H522 = experiment: Growth inhibition of human NCI-H522 cells at 10 uM after 48 hrs by SRB assay relative to control; details: NCI-H522, 48 h, read-out: GI
CAKI-1 = experiment: Growth inhibition of human Caki1 cells at 10 uM after 48 hrs by SRB assay relative to control; details: CAKI-1, 48 h, read-out: GI
KM12 = experiment: Growth inhibition of human KM12 cells at 10 uM after 48 hrs by SRB assay relative to control; details: KM12, 48 h, read-out: GI
A549 = experiment: Growth inhibition of human A549 cells at 10 uM after 48 hrs by SRB assay relative to control; details: A549, 48 h, read-out: GI
SNB-75 = experiment: Growth inhibition of human SNB75 cells at 10 uM after 48 hrs by SRB assay relative to control; details: SNB-75, 48 h, read-out: GI
SK-MEL-2 = experiment: Growth inhibition of human SK-MEL-2 cells at 10 uM after 48 hrs by SRB assay relative to control; details: SK-MEL-2, 48 h, read-out: GI

SMILES | inhibition of growth at 10 µM (CCRF-CEM) [%] | inhibition of growth at 10 µM (PC-3) [%] | inhibition of growth at 10 µM (K562) [%] | growth inhibition (GI) (OVCAR-8) | growth inhibition (GI) (RXF 393) | growth inhibition (GI) (HL-60) | inhibition of growth at 10 µM (SF-268) [%] | inhibition of growth at 10 µM (SR) [%] | inhibition of growth at 10 µM (HOP-92) [%] | inhibition of growth at 10 µM (SK-MEL-5) [%] | inhibition of growth at 10 µM (HOP-62) [%] | inhibition of growth at 10 µM (LOX IMVI) [%] | growth inhibition (GI) (786-0) | inhibition of growth at 10 µM (MCF7) [%] | inhibition of growth at 10 µM (UO-31) [%] | inhibition of growth at 10 µM (NCI-H226) [%] | inhibition of growth at 10 µM (NCI-H23) [%] | inhibition of growth at 10 µM (OVCAR-4) [%] | inhibition of growth at 10 µM (U-251) [%] | inhibition of growth at 10 µM (MOLT-4) [%] | also measured
COc1ccc(Cc2nnc3sc(SCC(=O)c4ccc(Cl)cc4)nn23)cc1 | 12.2 | 25.8 | 10 | inactive | inactive | inactive | 5 | 13.2 | 32 | 2.05 | 7.5 | 9 | inactive | 6.24 | 22.3 | 2 | 10.7 | 2.26 | 8.78 | 7.83 | inhibition of growth at 10 µM (Hs-578T; read-out: GI): 2.07%; inhibition of growth at 10 µM (HCT-116; HCT-116, 48 h, read-out: GI): 4%; inhibition of growth at 10 µM (NCI-H322M; read-out: GI): 6.27%; growth inhibition (GI) (MDA-MB-468): inactive; inhibition of growth at 10 µM (SK-OV-3; SK-OV-3, 48 h, read-out: GI): 11.2%; inhibition of growth at 10 µM (UACC-62; UACC-62, 48 h, read-out: GI): 1.72%; growth inhibition (GI) (Malme-3M): inactive; growth inhibition (GI) (SNB-19): inactive; inhibition of growth at 10 µM (OVCAR-3; OVCAR-3, 48 h, read-out: GI): 3.88%; growth inhibition (GI) (HT-29): inactive; inhibition of growth at 10 µM (A498): 35.4%; inhibition of growth at 10 µM (RPMI-8226): 8.67%; growth inhibition (GI) (UACC-257): inactive; inhibition of growth at 10 µM (NCI/ADR-RES): 5.12%; inhibition of growth at 10 µM (NCI-H522): 17.7%; inhibition of growth at 10 µM (CAKI-1): 17.5%; inhibition of growth at 10 µM (KM12): 5.4%; inhibition of growth at 10 µM (A549): 1.3%; inhibition of growth at 10 µM (SNB-75): 21.8%; inhibition of growth at 10 µM (SK-MEL-2): 10%
CCSc1nnc(Cc2ccc(OC)cc2)n1-c1ccccc1 | 7.61 | 14.3 | 14.1 | inactive | inactive | inactive | 6.15 | 3.31 | 8.26 | 4.7 | 2.28 | 4.89 | inactive | 5.53 | 20 | 5.31 | 6.16 | 7.48 | 13 | 10 | growth inhibition (GI) (Hs-578T): inactive; growth inhibition (GI) (HCT-116): inactive; growth inhibition (GI) (NCI-H322M): inactive; inhibition of growth at 10 µM (MDA-MB-468; MDA-MB-468, 48 h, read-out: GI): 10.7%; growth inhibition (GI) (SK-OV-3): inactive; growth inhibition (GI) (UACC-62): inactive; inhibition of growth at 10 µM (Malme-3M; read-out: GI): 9.23%; inhibition of growth at 10 µM (SNB-19; SNB-19, 48 h, read-out: GI): 14.5%; growth inhibition (GI) (OVCAR-3): inactive; inhibition of growth at 10 µM (HT-29; HT-29, 48 h, read-out: GI): 8.24%; inhibition of growth at 10 µM (A498): 22.1%; inhibition of growth at 10 µM (RPMI-8226): 13.5%; inhibition of growth at 10 µM (UACC-257; UACC-257, 48 h, read-out: GI): 3.16%; inhibition of growth at 10 µM (NCI/ADR-RES): 6.88%; inhibition of growth at 10 µM (NCI-H522): 22.4%; inhibition of growth at 10 µM (CAKI-1): 11.9%; inhibition of growth at 10 µM (KM12): 3.07%; inhibition of growth at 10 µM (A549): 5.86%; inhibition of growth at 10 µM (SNB-75): 10%; inhibition of growth at 10 µM (SK-MEL-2): 5%
